The values below come from US20240197700A1, “Methods and Compositions for Treating Lysosomal Storage Disorders” (Sanford Health, priority 2021, published 2024).

For test [1], the system named is NCL PNCs. As to the kind of experiment: LysoTracker signal in Batten disease primary neuronal cultures. The format is cell-based, mouse. The method, then:
Specific experimental details are included in figure legends. In general, after collection and preparation, MEFs and PNCs were dosed with vehicle or semaglutide (10 nM, 100 nM. or 1 μM) on DIV3 and DIV5. On DIV7, cells were exposed to the following dyes: Hoechst 33342 (1:1000 dilution), LysoTracker™ Red DND-99 (1:10,000 dilution), fixed. and imaged. Mice were injected three times per week with vehicle or semaglutide (2.571 μg/mouse, 25.71 μg/mouse) beginning at wean. Body weight was measured at 4, 6, 8, 12, and 16 weeks of age. At 16 weeks of age, Cln3^Δex7/8 mice along with age matched wildtype control mice were CO2 euthanized and intracardially perfused with PBS. Brains were collected and placed on a 1 mm sagittal brain block. Brains were sliced at the midline and 3 mm right of the midline. The 3 mm sagittal piece was flash frozen with −50° C. isopentane and then sectioned on a cryostat at 16 μm and placed on slides. For ASM measurements, slides were counterstained with DAPI. The other hemisphere was fixed in 4% PFA and sectioned at 50 microns on a vibratome. Immunohistochemistry was performed on free-floating sections. For SubC, GFAP, and CD68 immunolabeling, primary antibodies included mitochondrial anti-ATP synthase subunit C (Abcam, ab181243; 1:1000), anti-GFAP (Dako, Z0334; 1:5000), anti-CD68 (AbD Serotec, MCA1957; 1:2000), and secondary antibodies included anti-rabbit biotinylated (Vector Labs, BA-1000 1:1000) and anti-rat (Vector Labs, BA-9400 1:1000). Coverslips were mounted on slides using antifade-mounting media and were stored in the dark before imaging. ASM slides were imaged on a Nikon ECLIPSE™ Ni-E upright microscope with a CoolSNAP™ DYNO camera. Images were extracted from S1BF of the somatosensory cortex, CA3 of the hippocampus, and the VPM/VPL of the thalamus, with multiple images taken of multiple tissues from each animal. IHC slides were imaged and analyzed using an Aperio Digital Pathology Slide Scanner (AT2) and associated software. Images were extracted from the S1BF of the somatosensory cortex, the CA3 of the hippocampus, and the VPM/VPL of the thalamus.
In a further experiment, wild type (WT) and mutant primary neuronal cultures (PNCs) were treated with vehicle or semaglutide (10 nM, 100 nM, 1 μM; see FIG. 19). Cells were plated on in vitro day 0 and dosed with drug-containing media on DIV3 and DIV5. Analysis occurred on DIV7. Concentrations of drug are shown on the x-axis above each image column; genotypes are shown to the left of each row. […] Increasing concentrations of AF38469 are shown along the x-axis.

In test [2] the test system is NCL PNCs. Kind of test: Autofluorescent storage material (ASM) in Batten disease primary neuronal cultures. The class given is cell-based, mouse. The method, then: Specific experimental details are included in figure legends. […] On DIV7, cells were treated with the following dyes: Hoechst 33342 (1:1000 dilution), LysoTrackerT™ Red DND-99 (1:10,000 dilution), fixed, and imaged. Mice were given vehicle or AF38469 (78.125 μg/ml, 3.125 μg/ml, 0.3125 μg/ml or 0.03125 μg/ml equating approximately to 250 μg/mouse/day, 10 μg/mouse/day, 1 μg/mouse/day, and […], respectively, given a mouse's daily water intake of approximately 3.2 ml per day) in drinking water beginning at wean. Body weight was measured bi-weekly, and a force actimeter test was performed on Cln2^R207X mice at 10 weeks of age. Body weight was measured every month for Cln3^Δex7/8 mice. At 11 and 16 weeks of age, respectively, Cln2^R207X and Cln3^Δex7/8 mice along with age matched wild type control mice were CO2 euthanized and intracardially perfused with PBS. Brains were collected and placed on a 1 mm sagittal brain block. Brains were sliced at the midline and 3 mm right of the midline. One hemisphere was fixed in 4% PFA and sectioned at 50 microns on a vibratome. Immunohistochemistry was performed on free-floating sections. For mitochondrial ATP synthase subunit C (SubC), glial fibrillary acidic protein (GFAP), and cluster of differentiation 68 (CD68) immunolabeling, primary antibodies included anti-SubC (Abcam, ab181243; 1:1000), anti-GFAP (Dako, Z0334; 1:5000), anti-CD68 (AbD Serotec, MCA1957; 1:2000), and secondary antibodies included anti-rabbit biotinylated (Vector Labs, BA-1000 1:1000) and anti-rat (Vector Labs, BA-9400 1:1000). Coverslips were mounted on slides using antifade-mounting media and were stored in the dark before imaging. Sections were imaged and analyzed using an Aperio Digital Pathology Slide Scanner (AT2) and associated software. Images were extracted from S1BF of the somatosensory cortex and the VPM/VPL of the thalamus, with multiple images taken of multiple tissues from each animal.
• An increase in percent area or total area of positive autofluorescent storage material (ASM) signal in untreated NCL MEFs or PNCs relative to age-matched, wild type MEFs or PNCs is considered an increase in the accumulation of autofluorescent storage material, reflecting disease-related lysosomal dysfunction. • A decrease in percent area or total area of positive autofluorescent storage material signal in AF38469 treated MEFs and PNCs relative to age-matched, vehicle treated MEFs and PNCs is considered a reduction in the accumulation of autofluorescent storage material and thus a decrease in disease-related lysosomal dysfunction. • LysoTracker™ is an acidophilic dye that labels lysosomes and accumulation increases with an increase in lysosome size or number. Cell and mouse models of lysosomal storage disorders often have increased accumulation of lysosomes and therefore have a stronger LysoTracker™ signal. […]

Setting [3] is: semaglutide 10 nM, 100 nM, 1 μM, Cln2^R207X and Cln6^nclf PNCs.

Take semaglutide: the “Lysotracker signal (as printed, FIG. 19B)” value in test [1] (setting [3]) is on record as “significantly reduced”. Moreover, the LysoTracker signal result in test [1] (semaglutide 10 nM, 100 nM, 1 μM, Cln3^Δex7/8 PNCs) is “had no impact”; in test [1] (semaglutide 10 nM, 100 nM, 1 μM, Cln6^nclf and Cln8^mnd PNCs), “significantly reduced”; in test [1] (semaglutide 10 nM, 1 μM, Cln2^R207X PNCs), “significantly reduced”; in test [1] (semaglutide 10 nM, Cln1^R151X PNCs) it was “significantly elevated”; in test [1] (semaglutide 100 nM, 1 μM, Cln1^R151X PNCs) it was “significantly reduced”; in test [1] (semaglutide 100 nM, Cln2^R207X PNCs) it was “significantly elevated”. The “autofluorescent storage material (ASM) signal” value in test [2] (setting [3]) is listed as “significantly reduced”. In addition, the ASM levels result was “significantly reduced” in test [2] (semaglutide 10 nM, 100 nM, Cln3^Δex7/8 PNCs); “significantly reduced” in test [2] (semaglutide 10 nM, 1 μM, Cln1^R151X PNCs); “significantly reduced” in test [2] (semaglutide 10 nM, 1 μM, Cln8^mnd PNCs); “had no impact” in test [2] (semaglutide 100 nM, Cln1^R151X PNCs); “significantly elevated” in test [2] (semaglutide 100 nM, Cln8^mnd PNCs); “significantly elevated” in test [2] (semaglutide 1 μM, Cln3^Δex7/8 PNCs).
With `CC[C@H](C)[C@H](N)C(=O)NCCN1CCOCC1` [LM11A-31, N-[2-(morpholin-4-yl)ethyl]-L-isoleucinamide], the LysoTracker signal result was “significantly reduced” in test [1] (LM11A-31 100 nM, Cln2^R207X PNCs) and “significantly reduced” in test [1] (LM11A-31 1 μM, Cln6^nclf PNCs). Further, the “accumulation of autofluorescent storage material (ASM)” value in test [2] (LM11A-31 100 nM, Cln6^nclf and Cln8^mnd PNCs) was “significantly reduced”; in test [2] (LM11A-31 1 μM, Cln1^R151X PNCs), “significantly reduced”; in test [2] (LM11A-31 1 μM, Cln3^Δex7/8 PNCs) it was “significantly reduced”; in test [2] (LM11A-31 all treatment groups, Cln2^R207X PNCs), “significantly reduced”. Besides, the ASM entry in test [2] (LM11A-31 varying doses, neurons of all tested NCLs) is “significantly reduced”.
As to `Cc1cccc(NC(=O)c2ccc(C(F)(F)F)cc2C(=O)O)n1` [AF38469, 2-((6-methylpyridin-2-yl)carbamoyl)-5-(trifluoromethyl)benzoic acid], the LysoTracker signal result is listed as “had no impact” in test [1] (40 nM and 400 nM, Cln2^R207X PNCs); “significantly reduced” in test [1] (40 nM, 400 nM, 4 μM, Cln1^R151X and Cln6^nclf PNCs, DIV7); “significantly increased” in test [1] (40 nM, Cln3^Δex7/8 PNCs); “significantly increased” in test [1] (40 nM, Cln8^mnd PNCs); “significantly reduced” in test [1] (400 nM, Cln3^Δex7/8 PNCs); “significantly increased” in test [1] (400 nM, Cln8^mnd PNCs). The LysoTracker signal result in test [1] (4 μM, Cln2^R207X PNCs) is reported as “significantly reduced”; in test [1] (4 μM, Cln3^Δex7/8 PNCs), “had no impact”; in test [1] (4 μM, Cln8^mnd PNCs), “had no impact”. Also, the “accumulation of autofluorescent storage material (ASM)” value in test [2] (40 nM, 400 nM, 4 μM, Cln1^R151X, Cln2^R207X, Cln3^Δex7/8, Cln6^nclf PNCs, DIV7) was “significantly reduced”. Besides, in test [2] (Cln8^mnd PNCs, DIV7), the ASM levels result was “significantly increased”.
